This note sets out measurements from US20230321023A1, “APPLICATION OF REGULATION OF EYE SCLERA LIPID METABOLISM TO INHIBIT MYOPIA” (Wenzhou Medical University, priority 2020, published 2023).

Data set [1] concerns FD myopia. The data set is described as follows: FD myopia in guinea pigs, peribulbar injection of DHA, EPA or atropine. The format is in vivo, guinea pig. Conditions: 2 weeks; for reduction of myopia progression vs Vehicle group: high dose 3.0 μg/day. As for the experimental part:
(§1) The test animals were British tricolored short-haired guinea pigs aged 3 weeks. The animals were subjected to monocular form deprivation (FD) by a mask method and were randomly divided into 6 groups, which were treated by peribulbar injection with the following different substances: (1) ethanol solvent group (Vehicle); (2) low-dose DHA group (1.0 μg); (3) high-dose DHA group (3.0 μg): (4) low-dose EPA group (1.0 μg); (5) high-dose EPA group (3.0 μg); and (6) 0.1% atropine group.
The measurement methods of refraction, vitreous chamber depth and eye axis length were the same as those in Example 2.

In data set [2] the test system is FD myopia. The experiment in a line: Optimal treatment scheme: peribulbar DHA/EPA formulations in young guinea pig models with FD myopia. The data set is classed as in vivo. The arrangement: Vitreous chamber depth (difference between experimental eye and fellow eye): unit not given here. Conditions: FD guinea pigs, total mass 3 μg; for Eye axis length (difference between experimental eye and fellow eye): in mm (unit assumed); for Myopia inhibition rate: 1 W vs Veh. From the text: The optimal treatment protocol or scheme applying ω-3 by means by of feeding and peribulbar injection were investigated, respectively, and some critical findings were shown, especially when the eye was subjected to topical administration, unexpected results were obtained by using DHA alone or a composition of DHA and EPA. The basic experimental procedures were as described above.
However, as the content of EPA increases to become the predominant component (i.e., DHA:EPA<1:1), the efficacy of the mixture of DHA and EPA (the total mass of ocular topical administration is 3 μg in each case) is even better than that of DHA alone, EPA alone, or a mixture of DHA and EPA containing DHA as the main component (i.e., DHA:EPA>1:1, for example, […]) and is statistically significant (Table 1 and FIG. 12). It can be seen that the mixture of DHA and EPA that uses EPA as the predominant component or the predominant active ingredient has the optimal inhibition effect of myopia and myopia-related symptoms. Overall, all the treatment protocols in this example are very effective in inhibiting the negative refraction, eye axis elongation, and vitreous cavity depth increase.

Data set [3] in a line: Safety test, peribulbar injection of DHA. The format is in vivo, guinea pig. To be noted: peribulbar DHA alone, up to 3 μg/day, vs Vehicle control. The method, then:
as §1

Data set [4] in a line: Allergy study, periocular injection in FD animals. The data set is classed as in vivo. Conditions: high-purity DHA 3.0 μg or DHA 3.0 μg+EPA 3.0 μg, 100 μL daily periocular, 2 weeks. The method, then: Animals were randomly divided into three groups: FD+cod liver oil (commercially available ω-3 polyunsaturated fatty acids) group; FD+high-purity drug group 1 (FD+DHA 3.0 μg); and FD+high-purity drug group 2 (FD+“DHA 3.0 μg+EPA 3.0 μg”), and both high-purity drug groups were at a high dose.
After applying a topical anesthetic (one drop of 0.5% propazocaine hydrochloride, Alcon Laboratories, Inc., Puurs, Belgium), 100 μL of drug was daily administered at the surrounding area of FD eyeballs at 9:00 a.m., continuing for 2 weeks. All injections were completed within 10 seconds under dark red light to minimize any possible impact of red light on induced myopic recovery.

As for `CN1[C@@H]2CC[C@H]1C[C@@H](OC(=O)C(CO)c1ccccc1)C2` (stereo partly drawn) [Atropine, atropine, reference compound], the “reduced myopia rate (positive control)” value in the data set with FD myopia [1] (0.1% atropine) is 35.6%.

For `CC/C=C\C/C=C\C/C=C\C/C=C\C/C=C\C/C=C\CCC(=O)O` [DHA, docosahexaenoic acid], in the data set with FD myopia [2] (0 W), the “Refraction (difference between experimental eye and fellow eye)” value is listed as −0.23; the “Vitreous chamber depth (difference between experimental eye and fellow eye)” value stood at 0.00; the “Eye axis length (difference between experimental eye and fellow eye)” value is −0.01. In the data set with FD myopia [2], this compound gave a Myopia inhibition rate of 31.8%. In the data set with FD myopia [2] (1 W), the “Refraction (difference between experimental eye and fellow eye)” value is given as −2.95; the “Vitreous chamber depth (difference between experimental eye and fellow eye)” value worked out at 0.06; the “Eye axis length (difference between experimental eye and fellow eye)” value is given as 0.06. Moreover, the “reduction of myopia progression vs Vehicle group” value with FD myopia [1] was 35.3%. In data set [3], the “ACD (anterior chamber depth)” value was “no significant ocular differences”, the “LT (lens thickness)” value was “no significant ocular differences” and the body weight result is reported as “no significant ocular differences”. Further, the “adverse reactions such as allergies” value in data set [4] is given as “no adverse reactions such as allergies”.

Regarding `CC/C=C\C/C=C\C/C=C\C/C=C\C/C=C\CCCC(=O)O` [EPA, eicosapentaenoic acid], in the data set with FD myopia [2] (0 W), the “Refraction (difference between experimental eye and fellow eye)” value is listed as −0.40; the “Vitreous chamber depth (difference between experimental eye and fellow eye)” value is reported as 0.00; the “Eye axis length (difference between experimental eye and fellow eye)” value was 0.01. Also, the Myopia inhibition rate with FD myopia [2] is listed as 21.0%. For the same compound, in the data set with FD myopia [2] (1 W), the “Refraction (difference between experimental eye and fellow eye)” value is recorded as −3.42; the “Vitreous chamber depth (difference between experimental eye and fellow eye)” value was found to be 0.07; the “Eye axis length (difference between experimental eye and fellow eye)” value was 0.07. In the data set with FD myopia [1], the “reduction of myopia progression vs Vehicle group” value amounted to 29.6%.
